Measured values as given in PubChem BioAssay (NCI).
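Each compound was tested at five concentrations against cells in 96-well plates for 48 hours. Definition used: TGI = concentration required for complete inhibition of growth.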

Assays:
Test in all cases: NCI anticancer screen, dose series, 48 h
HOP-62 NSCLC = tested on: HOP-62 NSCLC
LOX IMVI melanoma = tested on: LOX IMVI melanoma
KM12 colon = tested on: KM12 colon
SK-MEL-5 melanoma = tested on: SK-MEL-5 melanoma
HCC-2998 colon = tested on: HCC-2998 colon
SF-268 CNS = tested on: SF-268 CNS
SW-620 colon = tested on: SW-620 colon
RPMI-8226 leukemia = tested on: RPMI-8226 leukemia
MDA-N = tested on: MDA-N
COLO 205 colon = tested on: COLO 205 colon
CAKI-1 renal = tested on: CAKI-1 renal
MOLT-4 leukemia = tested on: MOLT-4 leukemia
OVCAR-3 ovarian = tested on: OVCAR-3 ovarian
SN12C renal = tested on: SN12C renal
SNB-19 CNS = tested on: SNB-19 CNS
HCT-15 colon = tested on: HCT-15 colon
NCI-H226 lung = tested on: NCI-H226 lung
A549 NSCLC = tested on: A549 NSCLC
MALME-3M melanoma = tested on: MALME-3M melanoma
IGROV1 ovarian = tested on: IGROV1 ovarian
U251 CNS = tested on: U251 CNS
HT29 colon = tested on: HT29 colon
OVCAR-5 ovarian = tested on: OVCAR-5 ovarian
SR leukemia = tested on: SR leukemia
NCI/ADR-RES ovarian = tested on: NCI/ADR-RES ovarian
ACHN renal = tested on: ACHN renal
DU-145 prostate = tested on: DU-145 prostate
RXF 393 renal = tested on: RXF 393 renal
SK-OV-3 ovarian = tested on: SK-OV-3 ovarian
NCI-H522 lung = tested on: NCI-H522 lung
UO-31 renal = tested on: UO-31 renal
786-0 renal = tested on: 786-0 renal
MCF7 breast = tested on: MCF7 breast
SF-295 CNS = tested on: SF-295 CNS
NCI-H23 lung = tested on: NCI-H23 lung
UACC-257 melanoma = tested on: UACC-257 melanoma
M14 melanoma = tested on: M14 melanoma
TK-10 renal = tested on: TK-10 renal
PC-3 prostate = tested on: PC-3 prostate
UACC-62 melanoma = tested on: UACC-62 melanoma
OVCAR-8 ovarian = tested on: OVCAR-8 ovarian
HCT-116 colon = tested on: HCT-116 colon
SK-MEL-28 melanoma = tested on: SK-MEL-28 melanoma
MDA-MB-231 breast = tested on: MDA-MB-231 breast
EKVX NSCLC = tested on: EKVX NSCLC
SNB-75 CNS = tested on: SNB-75 CNS
SF-539 CNS = tested on: SF-539 CNS
T-47D breast = tested on: T-47D breast
A498 renal = tested on: A498 renal
HOP-92 NSCLC = tested on: HOP-92 NSCLC
MDA-MB-435 = tested on: MDA-MB-435
SK-MEL-2 melanoma = tested on: SK-MEL-2 melanoma
K-562 leukemia = tested on: K-562 leukemia
HL-60(TB) leukemia = tested on: HL-60(TB) leukemia
OVCAR-4 ovarian = tested on: OVCAR-4 ovarian
CCRF-CEM leukemia = tested on: CCRF-CEM leukemia
NCI-H460 lung = tested on: NCI-H460 lung
BT-549 breast = tested on: BT-549 breast
HS 578T breast = tested on: HS 578T breast

## CC#CC(O)(C(=O)OC1CCC2CCC1N2C)C1CCCC1 (configuration not stated)
HOP-62 NSCLC
  TGI: > 100 µM
LOX IMVI melanoma
  TGI: > 100 µM
KM12 colon
  TGI: > 100 µM
SK-MEL-5 melanoma
  TGI: > 100 µM
HCC-2998 colon
  TGI: > 100 µM
SF-268 CNS
  TGI: > 100 µM
SW-620 colon
  TGI: > 100 µM
RPMI-8226 leukemia
  TGI: > 100 µM
MDA-N
  TGI: > 100 µM
COLO 205 colon
  TGI: > 100 µM
CAKI-1 renal
  TGI: > 100 µM
MOLT-4 leukemia
  TGI: > 100 µM
OVCAR-3 ovarian
  TGI: > 100 µM
SN12C renal
  TGI: > 100 µM
SNB-19 CNS
  TGI: > 100 µM
HCT-15 colon
  TGI: > 100 µM
NCI-H226 lung
  TGI: > 100 µM
A549 NSCLC
  TGI: > 100 µM
MALME-3M melanoma
  TGI: > 100 µM
IGROV1 ovarian
  TGI: > 100 µM
U251 CNS
  TGI: > 10 µM
HT29 colon
  TGI: > 100 µM
OVCAR-5 ovarian
  TGI: > 10 µM
SR leukemia
  TGI: > 100 µM
NCI/ADR-RES ovarian
  TGI: > 10 µM
ACHN renal
  TGI: > 10 µM
DU-145 prostate
  TGI: > 100 µM
RXF 393 renal
  TGI: > 100 µM
SK-OV-3 ovarian
  TGI: > 100 µM
NCI-H522 lung
  TGI: > 100 µM
UO-31 renal
  TGI: > 100 µM
786-0 renal
  TGI: > 100 µM
MCF7 breast
  TGI: > 100 µM
SF-295 CNS
  TGI: > 100 µM
NCI-H23 lung
  TGI: > 100 µM
UACC-257 melanoma
  TGI: > 100 µM
M14 melanoma
  TGI: > 100 µM
TK-10 renal
  TGI: > 100 µM
PC-3 prostate
  TGI: > 100 µM
UACC-62 melanoma
  TGI: > 100 µM
OVCAR-8 ovarian
  TGI: > 100 µM
HCT-116 colon
  TGI: > 100 µM
SK-MEL-28 melanoma
  TGI: > 100 µM
MDA-MB-231 breast
  TGI: > 100 µM
EKVX NSCLC
  TGI: > 100 µM
SNB-75 CNS
  TGI: > 100 µM
SF-539 CNS
  TGI: > 100 µM
T-47D breast
  TGI: > 100 µM

## CCOC(=O)C1=c2[nH]c3cccc4cccc(c43)n2C(=O)CC1
HOP-62 NSCLC
  TGI: > 100 µM
LOX IMVI melanoma
  TGI: 62.2 µM
KM12 colon
  TGI: 89.3 µM
SK-MEL-5 melanoma
  TGI: > 100 µM
HCC-2998 colon
  TGI: > 100 µM
SW-620 colon
  TGI: 71.3 µM
RPMI-8226 leukemia
  TGI: > 100 µM
MDA-N
  TGI: > 100 µM
COLO 205 colon
  TGI: > 100 µM
CAKI-1 renal
  TGI: > 100 µM
MOLT-4 leukemia
  TGI: > 100 µM
OVCAR-3 ovarian
  TGI: > 100 µM
A498 renal
  TGI: > 100 µM
HOP-92 NSCLC
  TGI: > 100 µM
MDA-MB-435
  TGI: > 100 µM
SN12C renal
  TGI: > 100 µM
SNB-19 CNS
  TGI: > 100 µM
SK-MEL-2 melanoma
  TGI: > 100 µM
HCT-15 colon
  TGI: > 100 µM
A549 NSCLC
  TGI: > 100 µM
IGROV1 ovarian
  TGI: > 100 µM
U251 CNS
  TGI: > 100 µM
K-562 leukemia
  TGI: > 100 µM
OVCAR-5 ovarian
  TGI: > 100 µM
SR leukemia
  TGI: > 100 µM
NCI/ADR-RES ovarian
  TGI: > 100 µM
ACHN renal
  TGI: > 100 µM
DU-145 prostate
  TGI: > 100 µM
RXF 393 renal
  TGI: > 100 µM
SK-OV-3 ovarian
  TGI: > 100 µM
HL-60(TB) leukemia
  TGI: 64 µM
UO-31 renal
  TGI: > 100 µM
OVCAR-4 ovarian
  TGI: > 100 µM
786-0 renal
  TGI: > 100 µM
MCF7 breast
  TGI: > 100 µM
CCRF-CEM leukemia
  TGI: > 100 µM
SF-295 CNS
  TGI: > 100 µM
NCI-H23 lung
  TGI: > 100 µM
NCI-H460 lung
  TGI: > 100 µM
UACC-257 melanoma
  TGI: > 100 µM
M14 melanoma
  TGI: > 100 µM
TK-10 renal
  TGI: > 100 µM
PC-3 prostate
  TGI: > 100 µM
UACC-62 melanoma
  TGI: > 100 µM
OVCAR-8 ovarian
  TGI: > 100 µM
HCT-116 colon
  TGI: > 100 µM
SK-MEL-28 melanoma
  TGI: > 100 µM
EKVX NSCLC
  TGI: > 100 µM
SNB-75 CNS
  TGI: > 100 µM
T-47D breast
  TGI: 69.8 µM
BT-549 breast
  TGI: > 100 µM

## Cc1cc(Cl)nc(Nc2nc3ccccc3[nH]2)n1
HOP-62 NSCLC
  TGI: > 100 µM
LOX IMVI melanoma
  TGI: > 100 µM
SK-MEL-5 melanoma
  TGI: > 100 µM
HCC-2998 colon
  TGI: > 100 µM
SF-268 CNS
  TGI: > 100 µM
SW-620 colon
  TGI: > 100 µM
MDA-N
  TGI: > 100 µM
COLO 205 colon
  TGI: > 100 µM
OVCAR-3 ovarian
  TGI: > 100 µM
A498 renal
  TGI: > 100 µM
HOP-92 NSCLC
  TGI: > 100 µM
HS 578T breast
  TGI: > 100 µM
MDA-MB-435
  TGI: > 100 µM
SN12C renal
  TGI: > 100 µM
SNB-19 CNS
  TGI: > 100 µM
SK-MEL-2 melanoma
  TGI: > 100 µM
HCT-15 colon
  TGI: > 100 µM
NCI-H226 lung
  TGI: > 100 µM
A549 NSCLC
  TGI: > 100 µM
MALME-3M melanoma
  TGI: > 100 µM
IGROV1 ovarian
  TGI: > 100 µM
U251 CNS
  TGI: > 100 µM
HT29 colon
  TGI: > 100 µM
K-562 leukemia
  TGI: > 100 µM
OVCAR-5 ovarian
  TGI: > 100 µM
SR leukemia
  TGI: > 100 µM
NCI/ADR-RES ovarian
  TGI: > 100 µM
ACHN renal
  TGI: > 100 µM
DU-145 prostate
  TGI: > 100 µM
RXF 393 renal
  TGI: > 100 µM
SK-OV-3 ovarian
  TGI: > 100 µM
HL-60(TB) leukemia
  TGI: > 100 µM
NCI-H522 lung
  TGI: 5.96 µM
UO-31 renal
  TGI: > 100 µM
OVCAR-4 ovarian
  TGI: > 100 µM
786-0 renal
  TGI: > 100 µM
MCF7 breast
  TGI: > 100 µM
CCRF-CEM leukemia
  TGI: > 100 µM
SF-295 CNS
  TGI: > 100 µM
NCI-H23 lung
  TGI: > 100 µM
NCI-H460 lung
  TGI: > 100 µM
UACC-257 melanoma
  TGI: > 100 µM
M14 melanoma
  TGI: > 100 µM
TK-10 renal
  TGI: > 100 µM
PC-3 prostate
  TGI: > 100 µM
UACC-62 melanoma
  TGI: > 100 µM
OVCAR-8 ovarian
  TGI: > 100 µM
HCT-116 colon
  TGI: > 100 µM
SK-MEL-28 melanoma
  TGI: > 100 µM
MDA-MB-231 breast
  TGI: > 100 µM
SNB-75 CNS
  TGI: > 100 µM
SF-539 CNS
  TGI: > 100 µM
BT-549 breast
  TGI: > 100 µM
